Results on 14 compounds are retold here after PubChem BioAssay (NCI).

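Cells were grown in 96-well plates and exposed to each compound for 48 hours at five concentrations; endpoints were interpolated linearly between bracketing concentrations, or set to the highest concentration if not reached. GI50: concentration for 50% inhibition of growth. TGI is the concentration that stops growth completely.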 Bounds are passed on as bounds.

Test systems include HCC-2998 colon; HCT-116 colon; HL-60(TB) leukemia; OVCAR-8 ovarian; SK-MEL-2 melanoma; SK-MEL-5 melanoma; SN12C renal; SNB-19 CNS; SNB-75 CNS; SR leukemia.
Assay in all cases: inhibition of tumour cell growth, NCI panel, 48 h

Take `C/C(O)=C(/C=N/C(=S)Nc1ccc(S(N)(=O)=O)cc1)C(=O)Nc1ccccc1C`: the TGI is above 100 µM with HCC-2998 colon; above 100 µM with HCT-116 colon; 42.8 µM in the assay with HL-60(TB) leukemia; above 100 µM in the assay with OVCAR-8 ovarian; above 100 µM in the assay with SK-MEL-2 melanoma; above 100 µM in the assay with SK-MEL-5 melanoma. For the same compound, the TGI in the assay with SN12C renal and with SNB-19 CNS was above 100 µM throughout.
On to `CCCCCCC[CH2][Sn]([CH2]CCCCCCC)([O]c1cccc2cccnc12)[O]c1cccc2cccnc12`, for which the GI50 is 1990 nM in the assay with HCC-2998 colon; 2370 nM with HCT-116 colon; 2390 nM with OVCAR-8 ovarian; 1610 nM with SK-MEL-2 melanoma; 1650 nM with SK-MEL-5 melanoma; 1960 nM in the assay with SN12C renal. The GI50 was 2940 nM in the assay on SNB-19 CNS and 2740 nM in the assay on SNB-75 CNS. Besides, the TGI with HCC-2998 colon was determined as 3.43 µM; in the assay on HCT-116 colon, 10.1 µM; in the assay on OVCAR-8 ovarian it was 10.4 µM; with SK-MEL-2 melanoma, 3.14 µM; with SK-MEL-5 melanoma, 3.21 µM; in the assay on SN12C renal, 4.32 µM. Further, the TGI was determined as 9.31 µM in the assay with SNB-19 CNS and 9.53 µM in the assay with SNB-75 CNS.
On to `c1cncc(C2N3CCCCC3[C@@H]3c4[nH]c5ccccc5c4CCN23)c1` (stereo not given in full), for which the TGI in the assay on HCT-116 colon, in the assay on HL-60(TB) leukemia, in the assay with OVCAR-8 ovarian, with SK-MEL-2 melanoma, with SK-MEL-5 melanoma and in the assay with SN12C renal was above 100 µM each time. Moreover, the TGI in the assay on SNB-19 CNS and in the assay on SNB-75 CNS was above 100 µM each time.
For `O=C(Nc1ccc(Br)cc1F)c1cc(I)ccc1O`, the GI50 is 3140 nM with HCC-2998 colon; 2790 nM with HCT-116 colon; 2130 nM in the assay on HL-60(TB) leukemia; 3010 nM in the assay on OVCAR-8 ovarian; 2000 nM with SK-MEL-2 melanoma; 1480 nM in the assay on SK-MEL-5 melanoma. Besides, the GI50 with SN12C renal is 2750 nM; with SNB-19 CNS, 3080 nM; in the assay on SR leukemia, 2710 nM. Moreover, the TGI was found to be 12.7 µM with HCC-2998 colon; 11.4 µM in the assay on HCT-116 colon; 4.79 µM in the assay with HL-60(TB) leukemia; 15.9 µM in the assay with OVCAR-8 ovarian; 5.71 µM in the assay on SK-MEL-2 melanoma; 2.98 µM with SK-MEL-5 melanoma. The figures for the TGI in the assay on SN12C renal, in the assay on SNB-19 CNS and in the assay on SR leukemia were 9.91 µM, above 100 µM and above 100 µM, respectively.
Regarding `CC(=O)N1CC(C)(C)c2c(C)c(O)c(C)c(C)c21`, the TGI in the assay on HCC-2998 colon, with HCT-116 colon, in the assay with HL-60(TB) leukemia, in the assay with OVCAR-8 ovarian, in the assay with SK-MEL-5 melanoma and in the assay on SN12C renal was above 100 µM in each case. The TGI with SNB-19 CNS and in the assay with SNB-75 CNS was above 100 µM throughout.
`O=C1Nc2ccc(Br)cc2C1=Nc1cccnc1`: the TGI in the assay on HCC-2998 colon came out at 40 µM; in the assay with HCT-116 colon, 44.5 µM; in the assay with HL-60(TB) leukemia it was 48.8 µM; with OVCAR-8 ovarian it was 51.7 µM; in the assay on SK-MEL-2 melanoma it was 57.2 µM; with SK-MEL-5 melanoma, 31.8 µM. The TGI in the assay on SN12C renal was 37.9 µM; in the assay on SNB-19 CNS it was above 100 µM; in the assay on SNB-75 CNS it was above 100 µM.
Take `OC(CCNC12CC3CC(CC(C3)C1)C2)c1ccccc1` (stereo not given): the TGI in the assay on HCC-2998 colon, in the assay on HCT-116 colon, with HL-60(TB) leukemia, in the assay on OVCAR-8 ovarian, with SK-MEL-2 melanoma and in the assay with SK-MEL-5 melanoma was above 100 µM in each case. For the same compound, the TGI in the assay on SN12C renal, in the assay with SNB-19 CNS and in the assay on SNB-75 CNS was above 100 µM in each case.
As to `Cc1cccc(/C=N/NC(=S)N2CCCC2)n1`, the GI50 with HCC-2998 colon is 102 nM; in the assay on HL-60(TB) leukemia, 236 nM; in the assay on OVCAR-8 ovarian, 624 nM; in the assay on SN12C renal it was 719 nM; in the assay with SNB-19 CNS, 1400 nM; in the assay with SR leukemia it was 150 nM. Further, the TGI with HCC-2998 colon was 0.92 µM; in the assay on HL-60(TB) leukemia, 0.872 µM; in the assay with OVCAR-8 ovarian, above 100 µM; with SK-MEL-5 melanoma, 0.823 µM; with SNB-19 CNS, above 34.6 µM; with SR leukemia, 0.876 µM.
Regarding `COc1cc2c(cc1OC)[C@H](C)N1CCc3cc(OC)c(OC)cc3[C@@H]1C2`, the TGI in the assay on HCC-2998 colon, in the assay with HCT-116 colon, with HL-60(TB) leukemia, in the assay with OVCAR-8 ovarian, with SK-MEL-2 melanoma and in the assay on SK-MEL-5 melanoma was above 100 µM throughout. In addition, the TGI in the assay with SN12C renal, in the assay on SNB-19 CNS and in the assay with SNB-75 CNS was above 100 µM in each case.
For the compound `CCOC(C[C@H](O[Si](C)(C)C(C)(C)C)[C@H]1COC(=S)S1)OCC`, the TGI in the assay with HCC-2998 colon, in the assay with HCT-116 colon, in the assay on HL-60(TB) leukemia, in the assay with OVCAR-8 ovarian, with SK-MEL-5 melanoma and in the assay with SN12C renal was above 100 µM throughout. Also, the TGI in the assay with SNB-19 CNS and in the assay with SR leukemia was above 100 µM in each case.
In the case of `O=C1CCCCCCCCCCC1CN1CCCC1` (stereo not given), the TGI is 70.6 µM with HCC-2998 colon; above 100 µM in the assay with HCT-116 colon; above 100 µM in the assay with HL-60(TB) leukemia; above 100 µM with OVCAR-8 ovarian; 99.7 µM with SK-MEL-2 melanoma; 31.6 µM in the assay on SK-MEL-5 melanoma. Moreover, the TGI in the assay on SN12C renal, in the assay on SNB-19 CNS and in the assay with SNB-75 CNS was above 100 µM throughout.
Regarding `CCOC(=O)CC[C@H](NC(=O)c1nc[nH]c1[N+](=O)[O-])C(=O)OCC`, the TGI with HCC-2998 colon, in the assay on HCT-116 colon, in the assay with HL-60(TB) leukemia, in the assay on OVCAR-8 ovarian, in the assay on SK-MEL-2 melanoma and in the assay with SN12C renal was above 100 µM throughout. Also, the TGI in the assay with SNB-19 CNS and in the assay with SR leukemia was above 100 µM throughout.
As for `O=C(O)CC[C@H](NC(=O)c1ccc(-n2nc3ccc(O)cc3nc2=O)cc1)C(=O)O`, the TGI with HCC-2998 colon, in the assay with HCT-116 colon, in the assay on HL-60(TB) leukemia, in the assay on OVCAR-8 ovarian, in the assay with SK-MEL-2 melanoma and with SK-MEL-5 melanoma was above 100 µM throughout. The TGI in the assay with SN12C renal, in the assay with SNB-19 CNS and in the assay on SR leukemia was above 100 µM each time.
Take `CCOC(=O)/C(C1=NCCN1)=C(\O)c1ccccc1`: the TGI with HCC-2998 colon, with HCT-116 colon, in the assay on HL-60(TB) leukemia, in the assay with OVCAR-8 ovarian, in the assay with SK-MEL-2 melanoma and with SK-MEL-5 melanoma was above 100 µM in each case. Moreover, the TGI in the assay on SN12C renal, with SNB-19 CNS and in the assay on SR leukemia was above 100 µM throughout.
